≈ marks a conversion by molar mass, not a printed value. Entries after “also recorded” stand apart in the source; their conditions may differ.
Experiments:
[1] = Dynamic Vapour Sorption (DVS); type: physicochemical
Description: The following results and observations were obtained from this experiment (see Table 4 for further details): • After anti-solvent addition to the solutions at 20° C., the experiment carried out using tBME as the initial solvent system had solid adhered to the vial walls. The experiments carried out using MEK and THF as the initial solvent systems were cloudy, with some oil/gum formation noted. • After temperature cycling overnight, all experiments formed slurries. […] (peak at 98° C.) during the first heat. A glass transition with a mid-point half-height of ca. 32° C. was observed during the first cool. […] The residual tBME could not be quantified, due to overlapping signals with the API. Residual heptane was observed, equal to 0.91% w/w, or 0.05 equivalents. • ^1H NMR spectroscopy of the crystalline Form I isolated from MEK:heptane 20:80 v/v % was consistent with the structure of the compound of Formula I free base. The residual MEK could not be quantified, due to overlapping signals with the API. Residual heptane was observed, equal to 0.51% w/w, or 0.02 equivalents. • ^1H NMR spectroscopy of the crystalline Form I isolated from THF:heptane 22:78 v/v % was consistent with the structure of the compound of Formula I free base. The residual THF could not be quantified, due to overlapping signals with the API.
Crystalline forms of the compound of Formula I, including the crystalline Form I, were analyzed using Dynamic Vapour Sorption (DVS). Approximately 10-15 mg of sample was placed into a mesh vapour sorption balance pan and loaded into a DVS Intrinsic dynamic vapour sorption balance by Surface Measurement Systems. The sample was subjected to a ramping profile from 40-90% relative humidity (RH) at 10% increments, maintaining the sample at each step until a stable weight had been achieved (dm/dt 0.004%, minimum step length 30 minutes, maximum step length 120 minutes) at 25° C. After completion of the sorption cycle, the sample was dried using the same procedure to 0% RH and then a second sorption cycle back to 40% RH was carried out. Two cycles were performed. The weight change during the sorption/desorption cycles were plotted, allowing the hygroscopic nature of the sample to be determined. XRPD analysis was then carried out on the residual solid.

[2] = Aqueous solubility study (slurry in deionized water, HPLC); type: physicochemical; design: key to XRPD of residual solid, Wet / XRPD of residual solid, Dry: CRY: Crystalline
Description: The aqueous solubility of the crystalline Form I was assessed using the following procedure: • Approximately 10 mg of the dried material was slurried in deionized water (100 μL) at 20° C. with stirring. • Further aliquots of water (50 μL) were added until a mobile slurry was obtained. A total of 600 μL was used. • The slurry was stirred at 20° C. for 24 h then separated by centrifugation (0.22 μm nylon filter). • The residual solid was analyzed by XRPD and then dried under vacuum at ambient temperature (ca. 20° C.) for 72 h, prior to re-analysis by XRPD. The results are shown in FIG. 45. • The pH of the mother liquor was measured. • The mother liquors were analyzed by HPLC for purity and concentration.

COCCOc1cccc([C@@H]2CCN(CCn3cccc3)[C@H](C)[C@H]2COc2ccc3c(c2)C(=O)NC3)c1 [crystalline Form I, (−)-6-{[(trans, trans)-4-[3-(2-methoxyethoxy)phenyl]-2-methyl-1-[2-(1H-pyrrol-1-yl)ethyl]piperidin-3-yl]methoxy}-2,3-dihydro-1H-isoindol-1-one]
DVS mass uptake ([1]; 25° C./80% RH, material isolated from tBME:heptane 50:50 v/v %): ca. 0.5 % w/w
Water Uptake (DVS, 25° C.) At 25° C./80%, RH ([1]; 25° C./80% RH, tBME:Heptane 50:50): 0.5%
Post-DVS XRPD ([1]; form after DVS analysis): retained; also recorded: Form I
Hygroscopicity (DVS) ([1]; material isolated from tBME:heptane 50:50 v/v %): slightly hygroscopic
XRPD of residual solid, Dry ([2]; after slurrying in water and drying under vacuum 72 h): CRY
XRPD of residual solid, Wet ([2]; after slurrying in water at 20° C. for 24 h): CRY
solubility at 24 h ([2]; thermodynamic from solid, deionized water, 20° C., slurry stirred 24 h, HPLC, mother liquor pH 6.84, read-out: Aqueous Solubility (solution concentration)): 97 µg/mL (≈ 193 µM)
Form after slurrying in water (XRPD) ([2]; water, 20° C., and after drying): retained

From US12679825B2, “Crystalline and amorphous forms of a δ-opioid modulator” (Trevena, Inc., priority 2020, dated 2026)
